Data reported in the supplement of paper PMC13380429.

Columns and labels:
Settings in all cases: 72 h
Calu-3 [1] = assay: relative viability EC50 (midpoint between 100% and the lowest measured viability); higher = less toxic
HepG2 [2] = assay: as above
U2OS [3] = assay: as above
Caco-2 [4] = assay: as above
Vero E6 [5] = assay: as above
Calu-3 [6] = assay: cell viability relative to DMSO; higher = less toxic
HepG2 [7] = assay: as above
U2OS [8] = assay: as above
Caco-2 [9] = assay: as above
Vero E6 [10] = assay: as above
Calu-3 [11] = assay: drug sensitivity score (DSS) for viability; higher = more toxic; extreme values may be limits of the assay
HepG2 [12] = assay: as above
U2OS [13] = assay: as above
Caco-2 [14] = assay: as above
Vero E6 [15] = assay: as above

Structure (SMILES)	relative viability EC50 (Calu-3 [1])	relative viability EC50 (HepG2 [2])	relative viability EC50 (U2OS [3])	relative viability EC50 (Caco-2 [4])	relative viability EC50 (Vero E6 [5])	cell viability (Calu-3 [6]; 1 nM)	cell viability (Calu-3 [6]; 10 nM)	cell viability (Calu-3 [6]; 100 nM)	cell viability (Calu-3 [6]; 1000 nM)	cell viability (Calu-3 [6]; 10000 nM)	cell viability (HepG2 [7]; 1 nM)	cell viability (HepG2 [7]; 10 nM)	cell viability (HepG2 [7]; 100 nM)	cell viability (HepG2 [7]; 1000 nM)	cell viability (HepG2 [7]; 10000 nM)	cell viability (U2OS [8]; 1 nM)	cell viability (U2OS [8]; 10 nM)	cell viability (U2OS [8]; 100 nM)	cell viability (U2OS [8]; 1000 nM)	cell viability (U2OS [8]; 10000 nM)	cell viability (Caco-2 [9]; 1 nM)	cell viability (Caco-2 [9]; 10 nM)	cell viability (Caco-2 [9]; 100 nM)	cell viability (Caco-2 [9]; 1000 nM)	cell viability (Caco-2 [9]; 10000 nM)	cell viability (Vero E6 [10]; 1 nM)	cell viability (Vero E6 [10]; 10 nM)	cell viability (Vero E6 [10]; 100 nM)	cell viability (Vero E6 [10]; 1000 nM)	cell viability (Vero E6 [10]; 10000 nM)	drug sensitivity score (Calu-3 [11])	drug sensitivity score (HepG2 [12])	drug sensitivity score (U2OS [13])	drug sensitivity score (Caco-2 [14])	drug sensitivity score (Vero E6 [15])
CONC(=N)c1ccc(-c2ccc(-c3ccc(C(=N)NOC)cc3)o2)cc1 [pafuramidine]	> 10 µM	> 10 µM	> 10 µM	> 10 µM	> 10 µM	98.3%	97.4%	95.4%	96%	98.5%	94.4%	106%	99.2%	92.9%	110%	99.1%	99.8%	96.9%	102%	98.9%	92.3%	97%	92.5%	97.5%	87.9%	98.2%	97.5%	96%	93.9%	107%	0	0	0	0	0
Nc1nc(O)c2ncn(CCC(CO)CO)c2n1 [penciclovir]	> 10 µM	> 10 µM	> 10 µM	> 10 µM	> 10 µM	102%	90.8%	92%	94.1%	99.5%	89.8%	94.3%	101%	94.6%	102%	99.3%	95.9%	93.9%	101%	104%	98.7%	109%	102%	103%	102%	100%	94.3%	90%	95.1%	102%	0	0	0	0	0
O=C(CCc1ccc(O)cc1)c1c(O)cc(O)cc1O [phloretin]	> 10 µM	> 10 µM	> 10 µM	> 10 µM	> 10 µM	104%	93.2%	98.7%	98%	91.3%	107%	98.3%	94.2%	99.1%	99.4%	95.8%	100%	103%	96.8%	101%	92.1%	101%	97.5%	101%	98.6%	105%	102%	99.9%	103%	95.1%	0	0	0	0	0
CC(C)[C@H](CO)Nc1nc(Nc2cccc(Cl)c2)c2ncn(C(C)C)c2n1 [purvalanol-A]	> 10 µM	> 10 µM	> 10 µM	> 10 µM	> 10 µM	102%	109%	96.5%	102%	91.4%	90.8%	96.8%	100%	94.8%	87.2%	97.4%	105%	95.5%	99%	86.4%	91.6%	103%	93.4%	94.2%	83.1%	100%	97.4%	93.7%	95.5%	77.3%	0	0.4	0.2	0.4	1.4
O=C(NC1CCNCC1)[C@@H]1CC[C@@H]2CN1C(=O)N2OS(=O)(=O)O [relebactam]	> 10 µM	> 10 µM	> 10 µM	> 10 µM	> 10 µM	110%	103%	99%	107%	98.2%	93.9%	109%	94.1%	108%	95.3%	102%	107%	103%	101%	100%	92.6%	108%	89.4%	94.6%	90%	99.1%	97.2%	97.9%	102%	104%	0	0	0	0.3	0
O=C(NCCCN1CCOCC1)c1cnn2c(-c3ccccc3)cc(-c3ccccc3)nc12 [reversan]	> 10 µM	> 10 µM	> 10 µM	> 10 µM	> 10 µM	105%	101%	107%	91.8%	75.4%	91.7%	95.6%	92.6%	102%	93.3%	103%	103%	97.5%	99.5%	85.8%	104%	97%	92.2%	88.8%	75.6%	97.8%	100%	103%	103%	82.6%	2	0	0.2	1.8	0.3
CO[C@H]1/C=C/O[C@@]2(C)Oc3c(C)c(O)c4c(O)c(c5c(nc6cc(C)ccn65)c4c3C2=O)NC(=O)/C(C)=C\C=C\[C@H](C)[C@H](O)[C@@H](C)[C@@H](O)[C@@H](C)[C@H](OC(C)=O)[C@@H]1C [rifaximin]	> 10 µM	> 10 µM	> 10 µM	> 10 µM	> 10 µM	94.7%	95%	89%	101%	94.6%	110%	95.3%	102%	104%	106%	96.7%	99.3%	94.6%	93.3%	96.4%	137%	112%	87%	98.2%	96.4%	106%	93.6%	108%	106%	117%	0	0	0	0	0
CN(CCOc1ccc(CC2SC(=O)NC2=O)cc1)c1ccccn1 (stereo not given) [rosiglitazone]	> 10 µM	> 10 µM	> 10 µM	> 10 µM	> 10 µM	105%	96.2%	94.6%	102%	108%	94.9%	97.1%	93.5%	96.5%	89.5%	96.7%	97.2%	98.1%	98.5%	100%	99.9%	93%	93.9%	81.9%	90.7%	96.3%	95.2%	88.3%	82.1%	81.3%	0	0	0	0.9	2.8
NCC(CS(=O)(=O)O)c1ccc(Cl)cc1 (stereo not given) [saclofen]	> 10 µM	> 10 µM	> 10 µM	> 10 µM	> 10 µM	96.2%	91.9%	94.8%	86.9%	105%	107%	107%	105%	105%	98%	93.6%	99.7%	95.3%	96.9%	104%	100%	101%	91%	88.7%	95.5%	106%	98.6%	103%	101%	103%	0	0	0	0.6	0
COC(=O)[C@@H]1C[C@H](OC(C)=O)C(=O)[C@H]2[C@@]1(C)CC[C@H]1C(=O)O[C@H](c3ccoc3)C[C@]21C [salvinorin-A]	> 10 µM	> 10 µM	> 10 µM	> 10 µM	> 10 µM	110%	91.3%	97.5%	107%	109%	88.2%	106%	105%	98.2%	101%	97.9%	101%	93.1%	97%	97.3%	112%	112%	101%	101%	97.2%	98.5%	108%	106%	91.8%	98.4%	0	0	0	0	0
C[n+]1cc2c3c(ccc2c2ccc4cc5c(cc4c21)OCO5)OCO3 [sanguinarium-chloride]	2.42 µM	1.29 µM	2.52 µM	1.82 µM	1.58 µM	101%	96.4%	83.9%	91.1%	0.9%	93%	103%	96.7%	64.3%	0%	96.6%	98.5%	97%	92.1%	0.2%	85.8%	103%	73.1%	82.4%	2.2%	109%	99.8%	105%	75.9%	0.1%	6.9	10.3	6.8	8.3	9.2
CCO[C@@H](Cc1ccc(OCCn2c(C)ccc2-c2ccc(SC)cc2)cc1)C(=O)O [saroglitazar]	> 10 µM	> 10 µM	> 10 µM	> 10 µM	> 10 µM	93.3%	80.3%	97.6%	89.9%	105%	97.3%	95.5%	88.4%	97.1%	104%	102%	89.1%	101%	97.5%	93.9%	92%	92.8%	122%	93.7%	100%	99.5%	96.3%	88.1%	87.8%	95.2%	0	0	0	0	1.2
CN1[C@@H]2C[C@@H](O)C[C@H]1[C@@H]1O[C@@H]12 [scopine]	> 10 µM	> 10 µM	> 10 µM	> 10 µM	> 10 µM	102%	90.1%	98.8%	103%	103%	97.2%	99.7%	96.7%	99.8%	97%	98.4%	93.4%	96.1%	96%	102%	104%	93%	96.1%	98.3%	105%	104%	108%	106%	106%	98.8%	0	0	0	0	0
COc1cc(C2Oc3cc([C@H]4Oc5cc(O)cc(O)c5C(=O)[C@@H]4O)ccc3OC2CO)ccc1O (stereo not given in full) [silibinin]	> 10 µM	> 10 µM	> 10 µM	> 10 µM	> 10 µM	99.9%	108%	92.6%	98.6%	99.3%	100%	97.8%	101%	91.1%	93.1%	96%	103%	95.8%	98.9%	93.6%	103%	102%	93%	104%	100%	99.1%	106%	101%	103%	99.2%	0	0	0	0	0
